Columns and labels:
Experiment in all cases: DNS reducing sugar assay (total activity)
Type in all cases: biochemical
Conditions in all cases: 0–368 mM sucrose, 50 mM sodium citrate pH 4.0, 40 °C, read-out: Km or k
[1] = molecular target: T1, LcALT (truncated Leuconostoc citreum ABK-1 alternansucrase, pETΔ7SH, WT) (Leuconostoc citreum, UniProt A0A2H4A2Q1, W554A, form not given)
T1 construct: gene asr; pET19b via NcoI/XhoI, purified recombinant; exact borders and tags only in cited earlier work
Excerpt: (§1) DNS reducing sugar assay (total activity) on LcALT (truncated Leuconostoc citreum ABK-1 alternansucrase, pETΔ7SH, WT)

[2] = molecular target: T2, LcALT (truncated Leuconostoc citreum ABK-1 alternansucrase, pETΔ7SH, WT) (Leuconostoc citreum, UniProt A0A2H4A2Q1, W554F, form not given)
T2 construct: gene asr; pET19b via NcoI/XhoI, purified recombinant; exact borders and tags only in cited earlier work
T2 sequence (A0A2H4A2Q1 entry or part of it W554F, form open): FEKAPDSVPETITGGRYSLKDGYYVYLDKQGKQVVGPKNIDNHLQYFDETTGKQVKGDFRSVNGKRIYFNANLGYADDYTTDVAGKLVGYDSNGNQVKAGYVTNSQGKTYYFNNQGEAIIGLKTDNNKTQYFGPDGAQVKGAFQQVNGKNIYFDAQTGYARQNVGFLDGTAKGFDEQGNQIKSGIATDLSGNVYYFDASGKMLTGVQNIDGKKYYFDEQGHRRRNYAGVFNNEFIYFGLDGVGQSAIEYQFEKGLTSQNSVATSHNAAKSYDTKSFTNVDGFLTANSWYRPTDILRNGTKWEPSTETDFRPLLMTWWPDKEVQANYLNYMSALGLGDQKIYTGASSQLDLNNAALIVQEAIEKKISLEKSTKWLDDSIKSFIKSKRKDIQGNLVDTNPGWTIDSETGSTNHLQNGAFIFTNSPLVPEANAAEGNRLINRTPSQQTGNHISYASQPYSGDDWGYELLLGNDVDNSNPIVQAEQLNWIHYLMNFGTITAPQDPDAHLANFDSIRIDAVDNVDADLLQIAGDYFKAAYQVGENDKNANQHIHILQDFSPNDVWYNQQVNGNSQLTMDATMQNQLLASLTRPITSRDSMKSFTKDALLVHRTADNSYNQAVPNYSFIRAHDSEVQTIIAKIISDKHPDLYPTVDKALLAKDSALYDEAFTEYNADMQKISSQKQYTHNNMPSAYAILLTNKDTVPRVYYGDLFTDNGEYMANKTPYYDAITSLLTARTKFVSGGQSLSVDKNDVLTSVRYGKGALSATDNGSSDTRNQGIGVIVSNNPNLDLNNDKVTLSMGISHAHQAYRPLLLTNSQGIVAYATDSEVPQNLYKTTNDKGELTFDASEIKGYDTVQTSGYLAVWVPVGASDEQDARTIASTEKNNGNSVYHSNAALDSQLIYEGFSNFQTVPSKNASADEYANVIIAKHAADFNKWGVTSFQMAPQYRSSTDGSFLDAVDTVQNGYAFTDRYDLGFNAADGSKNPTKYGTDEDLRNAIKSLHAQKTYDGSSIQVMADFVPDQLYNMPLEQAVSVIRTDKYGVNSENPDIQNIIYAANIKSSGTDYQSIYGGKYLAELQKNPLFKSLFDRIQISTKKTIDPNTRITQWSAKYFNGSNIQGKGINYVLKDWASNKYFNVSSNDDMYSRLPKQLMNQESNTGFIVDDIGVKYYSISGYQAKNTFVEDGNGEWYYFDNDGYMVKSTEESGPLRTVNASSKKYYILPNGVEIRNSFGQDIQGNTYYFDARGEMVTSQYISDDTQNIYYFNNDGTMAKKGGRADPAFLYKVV
Excerpt: as §1

[3] = molecular target: T3, LcALT (truncated Leuconostoc citreum ABK-1 alternansucrase, pETΔ7SH, WT) (Leuconostoc citreum, UniProt A0A2H4A2Q1, W554I, form not given)
T3 construct: gene asr; pET19b via NcoI/XhoI, purified recombinant; exact borders and tags only in cited earlier work
T3 sequence (A0A2H4A2Q1 entry or part of it W554I, form open): as the sequence (A0A2H4A2Q1 entry or part of it W554F, form open) above, with F554I counted along it
Excerpt: as §1

[4] = molecular target: T4, LcALT (truncated Leuconostoc citreum ABK-1 alternansucrase, pETΔ7SH, WT) (Leuconostoc citreum, UniProt A0A2H4A2Q1, W554L, form not given)
T4 construct: gene asr; pET19b via NcoI/XhoI, purified recombinant; exact borders and tags only in cited earlier work
T4 sequence (A0A2H4A2Q1 entry or part of it W554L, form open): as the sequence (A0A2H4A2Q1 entry or part of it W554F, form open) above, with F554L counted along it
Excerpt: as §1

[5] = molecular target: T5, LcALT (truncated Leuconostoc citreum ABK-1 alternansucrase, pETΔ7SH, WT) (Leuconostoc citreum, UniProt A0A2H4A2Q1, W554S, form not given)
T5 construct: gene asr; pET19b via NcoI/XhoI, purified recombinant; exact borders and tags only in cited earlier work
T5 sequence (A0A2H4A2Q1 entry or part of it W554S, form open): as the sequence (A0A2H4A2Q1 entry or part of it W554F, form open) above, with F554S counted along it
Excerpt: as §1

[6] = molecular target: T6, LcALT (truncated Leuconostoc citreum ABK-1 alternansucrase, pETΔ7SH, WT) (Leuconostoc citreum, UniProt A0A2H4A2Q1, W554Y, form not given)
T6 construct: gene asr; pET19b via NcoI/XhoI, purified recombinant; exact borders and tags only in cited earlier work
T6 sequence (A0A2H4A2Q1 entry or part of it W554Y, form open): as the sequence (A0A2H4A2Q1 entry or part of it W554F, form open) above, with F554Y counted along it
Excerpt: as §1

T1 sequence (A0A2H4A2Q1 entry or part of it W554A, form open): as the sequence (A0A2H4A2Q1 entry or part of it W554F, form open) above, with F554A counted along it

OC[C@H]1O[C@@](CO)(O[C@H]2O[C@H](CO)[C@@H](O)[C@H](O)[C@H]2O)[C@@H](O)[C@@H]1O [sucrose]
Km [1]: 43 ± 4.7 mM
Km [2]: 16.6 ± 2.1 mM
Km [3]: 53.1 ± 4.6 mM
Km [4]: 46.4 ± 6 mM
Km [5]: 63.6 ± 8.3 mM
Km [6]: 14.2 ± 2 mM
